This passage reports inhibition of phosphorylation results from patent US20040014946A1, “Protein interaction method and composition” (priority 2002, published 2004).

This assay concerns AbI Protein Tyrosine Kinase. In words: On-chip phosphorylation inhibition screening assay (biofunction chip, MALDI MS). The format is biochemical. Conditions: 250 nM substrate, 23° C. The procedure:
FIG. 8 illustrates a biofunction chip with enzymatic functions. The reaction components consisted of 0.4U/well of AbI at pH 7.5, 0.1 mM ATP, and 400 nM substrate. 4 μl were added per well, and the reaction was incubated at 23° C. for 90 minutes. On-chip phosphorylation in rabbit reticulocyte extract with various substrate concentrations (0, 10, 30, 100, and 300 nM) is shown in FIG. 10. Reproducibility of the spectra in the same scale and in different scales normalized to the phosphorylated peaks are shown in FIG. 13. The percent phosphorylation is determined over time for 1 Unit of substrate per well versus 0.12 Unit substrate per well.
Screening assays for ATP analogs or substrate analogs capable of inhibiting phosphorylation were also tested. […] 250 nM substrate, 5 μM ATP, 20 U/well AbI TK, and 0, 4, 8, 12, 16, and 20 μM ATTP were incubated at 23° C. for 60 minutes. […] 250 nM substrate, 5 μM ATP, 20 U/well AbI TK, and 0, 5, 10, 15 and 40 μM Genistein were incubated at 23° C. for 60 minutes. […] 250 nM substrate, 100 μM ATP, 0.4 Units/well AbI TK, and 0, 1, 2, 4, 8, and 12 μM Erbstain were incubated at 23° C. for 60 minutes.
The components of biofunction chips are useful for kinase studies, histone acetylation, DNA methylation and protease studies. […]

As for `O=CN/C=C/c1cc(O)ccc1O` [Erbstain], where the note is “100 μM ATP, 0.4 Units/well AbI TK, 0, 1, 2, 4, 8 and 12 μM Erbstain, 60 minutes (FIG. 16)”, the inhibition of phosphorylation result is on record as “inhibition of phosphorylation”.

With `O=c1c(-c2ccc(O)cc2)coc2cc(O)cc(O)c12` [Genistein], under “5 μM ATP, 20 U/well AbI TK, 0, 5, 10, 15 and 40 μM Genistein, 60 minutes (FIG. 15)”, the inhibition of phosphorylation entry is “inhibition of phosphorylation”.
